How the values were obtained:
Conditions in all cases: human; call rule not given here
[1] = system: Hepatotoxicity; assay: FDA HLAED, serum glutamic pyruvic transaminase (SGPT) increase
[2] = system: Hepatotoxicity; assay: FDA HLAED, serum glutamic oxaloacetic transaminase (SGOT) increase
[3] = system: Hepatotoxicity; assay: FDA HLAED, liver enzyme composite activity
[4] = system: Hepatotoxicity; assay: FDA HLAED, gamma-glutamyl transferase (GGT) increase
[5] = system: Hepatotoxicity; assay: FDA HLAED, alkaline phosphatase increase
[6] = system: Hepatotoxicity; assay: FDA HLAED, lactate dehydrogenase (LDH) increase
Throughout, for GGT Increase - Index Value: reference of the scale not given here.
Throughout, for LDH Increase - Index Value: reference of the scale not given here.

SMILES | SGPT Increase - Activity Score [1] | SGPT Increase - Index Value [1] | SGPT Increase - Number of Reports [1] | SGOT Increase - Activity Score [2] | SGOT Increase - Index Value [2] | SGOT Increase - Number of Reports [2] | Composite Activity - Active [3] | Composite Activity - Marginal [3] | Composite Activity - Score [3] | GGT Increase - Activity Score [4] | GGT Increase - Index Value [4] | GGT Increase - Number of Reports [4] | Alkaline Phosphatase Increase - Activity Score [5] | Alkaline Phosphatase Increase - Index Value [5] | Alkaline Phosphatase Increase - Number of Reports [5] | LDH Increase - Activity Score [6] | LDH Increase - Index Value [6] | LDH Increase - Number of Reports [6]
O=C(NCC(O)CO)c1c(I)c(C(=O)NCC(O)CO)c(I)c(N(CCO)C(=O)CO)c1I (stereo unspecified) [IOVERSOL] | Inactive | 0 | < 4 | Inactive | 0 | < 4 | 0 | 0 | Inactive | Inactive | 0 | < 4 | Inactive | 0 | < 4 | Inactive | 400 | < 4
CCc1c2c(nc3ccc(OC(=O)N4CCC(N5CCCCC5)CC4)cc13)-c1cc3c(c(=O)n1C2)COC(=O)[C@]3(O)CC [IRINOTECAN] | Inactive | 6.1 | < 4 | Inactive | 6.1 | < 4 | 0 | 0 | Inactive | Inactive | 2 | < 4 | Inactive | 4.1 | < 4 | Inactive | 4.1 | < 4
FC(F)OC(Cl)C(F)(F)F (stereo unspecified) [ISOFLURANE] | Inactive | 0.4 | < 4 | Inactive | 1 | >= 4 | 0 | 0 | Inactive | Inactive | 0 | < 4 | Inactive | 0.6 | < 4 | Inactive | 0 | < 4
NNC(=O)c1ccncc1 [ISONIAZID] | Active | 34.7 | >= 4 | Active | 38.7 | >= 4 | 5 | 0 | Active | Active | 8 | >= 4 | Active | 12.7 | >= 4 | Active | 10 | >= 4
O=[N+]([O-])O[C@@H]1CO[C@H]2[C@@H]1OC[C@@H]2O [ISOSORBIDE MONONITRATE] | Inactive | 0.5 | < 4 | Inactive | 0.2 | < 4 | 0 | 0 | Inactive | Inactive | 0 | < 4 | Inactive | 0 | < 4 | Inactive | 0.2 | < 4
CC1=C(/C=C/C(C)=C/C=C/C(C)=C\C(=O)O)C(C)(C)CCC1 [ISOTRETINOIN] | Active | 63.7 | >= 4 | Active | 98.4 | >= 4 | 4 | 0 | Active | Inactive | 0 | < 4 | Active | 45.7 | >= 4 | Active | 54 | >= 4
COC(=O)C1=C(C)NC(C)=C(C(=O)OC(C)C)C1c1cccc2nonc12 (stereo unspecified) [ISRADIPINE] | Inactive | 0.7 | >= 4 | Inactive | 0.8 | >= 4 | 0 | 0 | Inactive | Inactive | 0.2 | < 4 | Inactive | 0.5 | < 4 | Inactive | 0.3 | < 4
CCC(C)n1ncn(-c2ccc(N3CCN(c4ccc(OCC5COC(Cn6cncn6)(c6ccc(Cl)cc6Cl)O5)cc4)CC3)cc2)c1=O (stereo unspecified) [ITRACONAZOLE] | Active | 19.8 | >= 4 | Active | 19.6 | >= 4 | 5 | 0 | Active | Active | 14.1 | >= 4 | Active | 12.4 | >= 4 | Active | 5.8 | >= 4
CC(=O)N1CCN(c2ccc(OCC3COC(Cn4ccnc4)(c4ccc(Cl)cc4Cl)O3)cc2)CC1 (stereo unspecified) [KETOCONAZOLE] | Active | 10.7 | >= 4 | Active | 14.7 | >= 4 | 3 | 0 | Active | Inactive | 0 | < 4 | Active | 5.4 | >= 4 | Inactive | 2.7 | < 4
CC(C(=O)O)c1cccc(C(=O)c2ccccc2)c1 (stereo unspecified) [KETOPROFEN] | Inactive | 0.4 | < 4 | Inactive | 0.6 | < 4 | 0 | 0 | Inactive | Inactive | 0 | < 4 | Inactive | 0.6 | < 4 | Inactive | 0.4 | < 4
O=C(c1ccccc1)c1ccc2n1CCC2C(=O)O (stereo unspecified) [KETOROLAC] | Inactive | 0.6 | >= 4 | Inactive | 0.9 | >= 4 | 0 | 0 | Inactive | Inactive | 0.5 | < 4 | Inactive | 1.4 | >= 4 | Inactive | 0.5 | >= 4
CC(CCc1ccccc1)NCC(O)c1ccc(O)c(C(N)=O)c1 (stereo unspecified) [LABETALOL] | Inactive | 1.1 | >= 4 | Marginally Active | 3 | >= 4 | 0 | 1 | Inactive | Inactive | 0 | < 4 | Inactive | 0.9 | >= 4 | Inactive | 0.4 | < 4
